Test results: publication PMC10518257 (Nature Cancer, 2023)

Tested on: RET phosphorylation at Y905 and Y1062 and downstream effectors
Experiment: Western blotting of serum-starved LUAD-0002AS1, ECLC5B and TT cells, 2 h
Format: cell-based, human
Conditions: 50 nM
Method: Serum-starved cells were treated with 5, 50 or 500 nM inhibitor for 2 h, and then protein phosphorylation levels were examined (Fig. 3a). […] We performed additional dose–response western blotting studies using lower inhibitor concentrations. Immunoblots were quantitated by densitometry, and the EC50 for phosphorylation inhibition was estimated (Extended Data Fig. 4). […] Quantitation of immunoblots is shown in Extended Data Fig. 4c,d.
Following treatment, whole-cell extracts were prepared and subjected to western blotting analysis. Representative immunoblots from two independent experiments are shown. GAPDH was used as a loading control. RSK, ribosomal protein S6 kinase; S6RP, S6 ribosomal protein. b,c, Cells were plated in 96-well plates and treated for 96 h with the inhibitors shown. The number of viable cells was assessed using alamarBlue. b, Viability curves for control HBEC cells (HBECp53-EV) and HBEC cells with the CCDC6-RET fusion (HBECp53-RET) are shown at the left. […] Data were analyzed by non-linear regression, and IC50 values were estimated by curve fitting. […]
See Supplementary Table 4 for a complete list of antibodies and dilutions used. […] The bands of the target proteins were detected with SuperSignal West Dura Extended Duration Substrate (Thermo Fisher Scientific) by the Amersham Imager 600 QC (Cytiva) or exposed to X-ray film and visualized using a Kodak X-ray developer.

## COCc1ccc(NC(=O)c2c(C#CCN3CCOCC3)n(C3(C)CC3)c3ncnc(N)c23)cc1 [Vepafestinib, 4-amino-N-[4-(methoxymethyl)phenyl]-7-(1-methylcyclopropyl)-6-[3-(morpholin-4-yl)prop-1-yn-1-yl]-7H-pyrrolo[2,3-d]pyrimidine-5-carboxamide]
  inhibition of phosphorylation of RET and downstream effectors: Near-complete inhibition
